Like-named read-outs stand apart in the source and are kept apart here.
Key:
NDM-1 = NDM-1 (Klebsiella pneumoniae, UniProt C7C422); assay: biochemical; format: biochemical
[1] = tested on: Escherichia coli expressing NDM-1 (CLB30005); assay: Antibiotic potentiation activity: synergistic concentration (MITC95) with imipenem, OD600 growth; format: cell-based; conditions: for Escherichia coli expressing NDM-1 (CLB 30005) MITC95: concentration giving 95% inhibition of bacterial growth
Outline: (§1)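 Bacteria were grown overnight on agar at 35 °C, diluted 1:100 from saline into 1.1× CAMHB, then given compound with or without imipenem (4 μg/ml in assay, optionally 1 μg/ml). Endpoint: absorbance at 22–24 h.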

[2] = tested on: Klebsiella pneumoniae expressing VIM-1 (IHMA599644); assay: as above; format: cell-based; conditions: for Klebsiella pneumoniae expressing VIM-1 (IHMA 599644) MITC95: concentration giving 95% inhibition of bacterial growth
Outline: as §1

[3] = tested on: Serratia marcescens expressing IMP-1 (CL5741); assay: as above; format: cell-based; conditions: for Serratia marcescens expressing IMP-1 (CL5741) MITC95: concentration giving 95% inhibition of bacterial growth
Outline: as §1

IMP-1 = IMP-1 (Serratia marcescens, UniProt P52699); assay: biochemical; format: biochemical
VIM-1 = VIM-1 (Pseudomonas aeruginosa (strain ATCC 15692 / DSM 22644 / CIP 104116 / JCM 14847 / LMG 12228 / 1C / PRS 101 / PAO1), UniProt A0A0F7KYQ8); assay: Enzyme activity: determination of IC50, fluorescence assay with CCF2-FA substrate (VIM-1); format: biochemical
[4] = fluorescence assay with CCF2-FA substrate, read-out: NDM-1 IC50
[5] = fluorescence assay with CCF2-FA substrate, read-out: IMP-1 IC50
[6] = fluorescence assay with CCF2-FA substrate, read-out: VIM-1 IC50

Chain of IMP-1 (P52699 whole entry, looked up): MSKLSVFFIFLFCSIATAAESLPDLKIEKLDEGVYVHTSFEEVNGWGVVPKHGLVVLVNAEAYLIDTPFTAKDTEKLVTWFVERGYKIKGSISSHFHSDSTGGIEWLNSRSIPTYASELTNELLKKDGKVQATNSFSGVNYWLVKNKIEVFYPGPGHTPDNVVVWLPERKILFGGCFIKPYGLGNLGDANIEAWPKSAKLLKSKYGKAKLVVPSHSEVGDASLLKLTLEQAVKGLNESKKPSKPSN
Chain of NDM-1 (C7C422 whole entry, looked up, species assumed): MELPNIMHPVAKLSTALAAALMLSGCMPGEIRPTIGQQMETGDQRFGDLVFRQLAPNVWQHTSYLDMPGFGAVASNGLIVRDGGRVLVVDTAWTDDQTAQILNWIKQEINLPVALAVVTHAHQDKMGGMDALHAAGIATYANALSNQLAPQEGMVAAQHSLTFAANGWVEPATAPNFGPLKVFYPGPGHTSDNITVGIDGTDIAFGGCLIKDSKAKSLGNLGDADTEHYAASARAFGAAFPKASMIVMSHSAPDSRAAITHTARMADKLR

Row | SMILES | IC50 (NDM-1; [4]) [nM] | Escherichia coli expressing NDM-1 (CLB 30005) MITC95 [1] [µM] | Klebsiella pneumoniae expressing VIM-1 (IHMA 599644) MITC95 [2] [µM] | Serratia marcescens expressing IMP-1 (CL5741) MITC95 [3] [µM] | IC50 (IMP-1; [5]) [nM] | IC50 (VIM-1; [6]) [nM] | IC50 (NDM-1; NDM-1 enzyme, CCF2-FA fluorescence assay, read-out: NDM-1 IC50) [nM] | Escherichia coli MITC95 ([1]; Escherichia coli expressing NDM-1 (CLB30005), 95% growth inhibition) [µM] | Klebsiella pneumoniae MITC95 ([2]; Klebsiella pneumoniae expressing VIM-1 (IHMA599644), 95% growth inhibition) [µM] | Serratia marcescens MITC95 ([3]; Serratia marcescens expressing IMP-1 (CL5741), 95% growth inhibition) [µM] | IC50 (IMP-1; IMP-1 enzyme, CCF2-FA fluorescence assay, read-out: IMP-1 IC50) [nM] | IC50 (VIM-1; VIM-1 IC50, VIM-1 enzyme, CCF2-FA fluorescence assay) [nM] | IC50 (NDM-1) [nM] | IC50 (IMP-1) [nM]
1 | Cn1nccc1-c1cccc(S(N)(=O)=O)c1-c1nn[nH]n1 [Example 49, 3-(1-methyl-1H-pyrazol-5-yl)-2-(2H-tetrazol-5-yl)benzenesulfonamide] | 21.6 | 0.5859 | 12.5 | 150 | 4050 | 61.7 |  |  |  |  |  |  |  | 
2 | NS(=O)(=O)c1ccnc(-c2ccc(CO)cc2)c1-c1nnn[nH]1 [Example 188, 2-(4-(Hydroxymethyl)phenyl)-3-(1H-tetrazol-5-yl)pyridine-4-sulfonamide] | 36.5 | 2.344 | >200 | 37.5 | 768 | 4130 |  |  |  |  |  |  |  | 
3 | COc1nc2cc(Cl)c(-c3cccc(S(N)(=O)=O)c3-c3nn[nH]n3)cc2[nH]1 [Example 279, 3-(5-chloro-2-methoxy-1H-benzo[d]imidazol-6-yl)-2-(2H-tetrazol-5-yl)benzenesulfonamide] |  |  |  |  |  |  | 32.3 | 0.5859 | 75 | 25 | 2170 | 183 |  | 
4 | NS(=O)(=O)c1cccc(-c2cnc(N3CCOCC3)nc2)c1-c1nn[nH]n1 [Example 94, 3-(2-morpholin-4-ylpyrimidin-5-yl)-2-(2H-tetrazol-5-yl)benzenesulfonamide] | 6.32 | 2.344 | 100 | 12.5 | 164 | 234 |  |  |  |  |  |  |  | 
5 | N#Cc1ccc2[nH]c(-c3cccc(S(N)(=O)=O)c3-c3nn[nH]n3)cc2c1 [Example 99, 3-(5-cyano-1H-indol-2-yl)-2-(2H-tetrazol-5-yl)benzenesulfonamide] | 6.98 | 9.375 | >200 | 28.13 | 208 | 104 |  |  |  |  |  |  |  | 
6 | NS(=O)(=O)c1cccc(-c2ccc3c(c2)OCCO3)c1-c1nn[nH]n1 [Example 56, 3-(2,3-dihydro-1,4-benzodioxin-6-yl)-2-(2H-tetrazol-5-yl)benzenesulfonamide] | 1.83 | 2.344 | 200 | 14.06 | 13.2 | 44 |  |  |  |  |  |  |  | 
7 | NS(=O)(=O)c1cccc(-c2ccc(CC3OC(=O)NC3=O)cc2)c1-c1nn[nH]n1 (stereo not drawn) [Example 76, 4′-[(2,4-dioxo-1,3-oxazolidin-5-yl)methyl]-2-(2H-tetrazol-5-yl)biphenyl-3-sulfonamide] | 17.1 | 6.25 | >200 | 6.25 | 42.7 | 244 |  |  |  |  |  |  |  | 
8 | NS(=O)(=O)c1cccc(-c2ccc(-c3ccn[nH]3)cc2)c1-c1nn[nH]n1 [Example 50, 4′-(1H-pyrazol-5-yl)-2-(2H-tetrazol-5-yl)biphenyl-3-sulfonamide] | 2.71 | 2.344 | 200 | 12.5 | 37.9 | 89.1 |  |  |  |  |  |  |  | 
9 | C[C@@H]1NC(=O)O[C@H]1c1ccc(-c2cccc(S(N)(=O)=O)c2-c2nnn[nH]2)cc1 [Example 29, 4′-[(4S,5S)-4-methyl-2-oxo-1,3-oxazolidin-5-yl]-2-(1H-tetrazol-5-yl)biphenyl-3-sulfonamide] | 1.49 | 3.125 | 200 | 6.25 | 12.1 | 52.8 |  |  |  |  |  |  |  | 
10 | CNC(=O)c1ccc(-c2cccc(S(N)(=O)=O)c2-c2nn[nH]n2)cc1 [Example 13, N-methyl-3′-sulfamoyl-2′-(2H-tetrazol-5-yl)biphenyl-4-carboxamide] | 5.47 | 1.563 | 200 | 200 | 173 | 226 |  |  |  |  |  |  |  | 
11 | CNS(=O)(=O)c1ccc(-c2cccc(S(N)(=O)=O)c2-c2nn[nH]n2)cc1 [Example 57, N~4~-′-methyl-2-(2H-tetrazol-5-yl)biphenyl-3,4′-disulfonamide] | 4.19 | 1.563 | 25 | 4.688 | 28.9 | 29.7 |  |  |  |  |  |  |  | 
12 | NS(=O)(=O)c1nccc(-c2cnc3[nH]ccc3c2)c1-c1nn[nH]n1 [Example 212, 4-(1H-pyrrolo[2,3-b]pyridin-5-yl)-3-(2H-tetrazol-5-yl)pyridine-2-sulfonamide] | 7.91 | 0.3906 | 3.125 | 18.75 | 415 | 13.1 |  |  |  |  |  |  |  | 
13 | NS(=O)(=O)c1cccc(-c2ccc3ncccc3c2)c1-c1nn[nH]n1 [Example 66, 3-quinolin-6-yl-2-(2H-tetrazol-5-yl)benzenesulfonamide] | 1.1 | 0.7813 | 75 | 18.75 | 140 | 29.1 |  |  |  |  |  |  |  | 
14 | NS(=O)(=O)c1nccc(-c2ccc(CO)nc2)c1-c1nnn[nH]1 [Example 195, 6-(hydroxymethyl)-3′-(1H-tetrazol-5-yl)-[3,4′-bipyridine]-2′-sulfonamide] | 78.5 | 0.3906 | 12.5 | 50 | 2630 | 291 |  |  |  |  |  |  |  | 
15 | CC(CO)Oc1ccc(-c2cccc(S(N)(=O)=O)c2-c2nn[nH]n2)cc1 (stereo not drawn) [Example 6, 4′-(2-hydroxy-1-methylethoxy)-2-(2H-tetrazol-5-yl)biphenyl-3-sulfonamide] |  | 1.563 | >200 | 50 |  | 42.3 |  |  |  |  |  |  | 1.96 | 39.6
16 | NS(=O)(=O)c1cccc(-c2cccc(F)n2)c1-c1nn[nH]n1 [Example 36, 3-(6-fluoropyridin-2-yl)-2-(2H-tetrazol-5-yl)benzenesulfonamide] | 38.7 | 1.953 | 75 | 50 | 790 | 219 |  |  |  |  |  |  |  | 
17 | NS(=O)(=O)c1cccc(C2=CCSCC2)c1-c1nn[nH]n1 [Example 62, 3-(3,6-dihydro-2H-thiopyran-4-yl)-2-(2H-tetrazol-5-yl)benzenesulfonamide] | 8.47 | 1.563 | 100 | 100 | 211 | 186 |  |  |  |  |  |  |  | 

Source: patent publication US9708336B2, “Metallo-beta-lactamase inhibitors” (priority 2014, dated 2017)
